Measured values from patent publication US11371055B2, “Herbicide resistance genes” (CORTEVA AGRISCIENCE LLC, priority 2005, dated 2022).

Experiments:
AAD-12 (v2) = biological target: T1, AAD-12 (v2) (Delftia acidovorans, UniProt P83309); test: Chloropyridinol detection assay (absorbance at 325 nm); type: biochemical; conditions: 6.8 μg AAD-12 (v2), 1 mM substrate; for Rate (mAU/min): 325 nm, background rate 1.4 mAU/min subtracted
T1 construct: made in house; host or cells: Pseudomonas fluorescens strain MB324 (construct pDAB739)
Excerpt: AAD-12 action on potential substrates such as the herbicide triclopyr containing a substituted pyridine (rather than benzene rings) will release a pyridinol on cleavage of the aryloxyalkanoate bond. Pyridinols were not detected using the aminoantipyrine/ferricyanide phenol detection described in the preceding section. […] This was used to create a continuous microplate-based spectrophotometric assay.
All five pyridyloxyalkanoates were cleaved to release pyridinols by AAD-12 (v2). The rates for the oxypropionate substrates 116844 and 91767 were somewhat faster than those for the corresponding acetates (triclopyr and 93833 respectively) indicating a preference of AAD-12 (v2) for oxypropionate over oxyacetate side chains.

[1] = tested on: AAD-12 (v1) (pDAS1580) T2 tobacco plants; test: Auxinic herbicide cross tolerance of stacked tobacco, AAD-12 T2; type: in vivo, Nicotiana tabacum; conditions: 280 g ae/ha
Procedure: (§1) Homozygous AAD-12 (v1) (pDAS1580) and AAD-1 (v3) (pDAB721) plants (see PCT/US2005/014737 for the latter) were both reciprocally crossed and F1 seed was collected. The F1 seed from two reciprocal crosses of each gene were stratified and treated 4 reps of each cross were treated under the same spray regimen as used for the other testing with one of the following treatments: 70, 140, 280 g ac/ha fluroxypyr (selective for the AAD-12 (v1) gene); 280, 560, 1120 g ae/ha R-dichloroprop (selective for the AAD-1 (v3) gene); or 560, 1120, 2240 g ae/ha 2,4-D DMA (to confirm 2,4-D tolerance). Homozygous T2 plants of each gene were also planted for use as controls. Plants were graded at 3 and 14 DAT.

[2] = tested on: AAD-1 (v3) (pDAB721) T2 tobacco plants; test: Auxinic herbicide cross tolerance of stacked tobacco, AAD-1 T2; type: in vivo, Nicotiana tabacum; conditions: 280 g ae/ha
Procedure: as §1

[3] = tested on: AAD-12 x AAD-1 F1 cross tobacco; test: Auxinic herbicide cross tolerance of stacked tobacco, F1 cross; type: in vivo, Nicotiana tabacum; conditions: AAD-12 (v1) x AAD (v3) F1; 280 g ae/ha
Procedure: as §1

wildtype tobacco = test: Auxinic herbicide cross tolerance of stacked tobacco, wildtype; type: in vivo, Nicotiana tabacum; conditions: KY160 wildtype control; 280 g ae/ha
Procedure: as §1

[4] = tested on: AAD-12 v1 gene + EPSPS + HptII (pDAB3759) T1 Arabidopsis; test: Glyphosate postemergence dose response, AAD-12 + EPSPS stack; type: in vivo, Arabidopsis thaliana; conditions: 14 DAT
Procedure: (§2) T1 Arabidopsis seed was produced, as previously described, containing the pDAB3759 plasmid (AAD-12 (v1)+EPSPS) which encodes a putative glyphosate resistance trait. T1 transformants were selected using AAD-12 (v1) as the selectable marker as described in example 7.6. T1 plants (individually transformed events) were recovered from the first selection attempt and transferred to three-inch pots in the greenhouse as previously described. Three different control Arabidopsis lines were also tested: wildtype Columbia-0, AAD-12 (v1)+PAT T4 homozygous lines (pDAB724-transformed), and PAT+Cry1F homozygous line (transformed control). The pDAB3759 and pDAB724 transformed plants were pre-selected at the seedling stage for 2,4-D tolerance. Four days after transplanting, plants were evenly divided for foliar treatment by track sprayer as previously described with 0, 26.25, 105, 420, or 1680 g ae/ha glyphosate (Glyphomax Plus, Dow AgroSciences) in water. All treatments were replicated 5 to 20 times. Plants were evaluated 7 and 14 days after treatment.

PAT/Cry1F Arabidopsis = test: Glyphosate postemergence dose response, PAT/Cry1F control; type: in vivo, Arabidopsis thaliana; conditions: 14 DAT
Procedure: as §2

[5] = tested on: Wildtype (Col-0) Arabidopsis; test: Glyphosate postemergence dose response, wildtype; type: in vivo, Arabidopsis thaliana; conditions: 14 DAT
Procedure: as §2

[6] = tested on: pDAB724 T4 (PAT + AAD-12) Arabidopsis; test: Glyphosate postemergence dose response, pDAB724 T4; type: in vivo, Arabidopsis thaliana; conditions: 14 DAT
Procedure: as §2

[7] = 26.25 g ae/ha glyphosate postemergence
[8] = 105 g ae/ha glyphosate postemergence
[9] = 420 g ae/ha glyphosate postemergence
[10] = 1680 g ae/ha glyphosate postemergence

T1 sequence (P83309 whole entry, looked up, natural form): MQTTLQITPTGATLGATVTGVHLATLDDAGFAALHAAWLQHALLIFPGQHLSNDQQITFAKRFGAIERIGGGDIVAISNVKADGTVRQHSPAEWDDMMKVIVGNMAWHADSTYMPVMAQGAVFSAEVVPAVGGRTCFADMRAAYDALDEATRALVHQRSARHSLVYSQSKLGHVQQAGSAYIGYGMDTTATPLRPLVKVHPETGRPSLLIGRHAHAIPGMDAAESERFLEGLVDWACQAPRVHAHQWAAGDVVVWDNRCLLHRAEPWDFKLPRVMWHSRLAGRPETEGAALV

CC(Oc1nc(F)c(Cl)cc1Cl)C(=O)O (centres unmarked) [compound 91767]
Rate relative to triclopyr (AAD-12 (v2)): 0.8
Rate (mAU/min) (AAD-12 (v2)): 190 mAU/min

O=C(O)COc1nc(F)c(Cl)cc1Cl [compound 93833]
Rate relative to triclopyr (AAD-12 (v2)): 0.5
Rate (mAU/min) (AAD-12 (v2)): 118 mAU/min

CC(Oc1nc(Cl)c(Cl)cc1Cl)C(=O)O (centres unmarked) [compound 116844]
Rate relative to triclopyr (AAD-12 (v2)): 1.4
Rate (mAU/min) (AAD-12 (v2)): 257 mAU/min

Nc1c(Cl)c(F)nc(OCC(=O)O)c1Cl [fluroxypy]
Average % injury 14 DAT [1]: 3%
Average % injury 14 DAT [2]: 75%
Average % injury 14 DAT [3]: 3%
Average % injury 14 DAT (wildtype tobacco): 75%

O=C(O)CNCP(=O)(O)O [glyphosate]
% Injury 20-40% (number of individuals) [4, 7]: 2
% Injury <20% (number of individuals) [4, 7]: 13
% Injury >40% (number of individuals) [4, 7]: 1
% Injury Ave [4, 7]: 11%
% Injury 20-40% (number of individuals) [4, 8]: 1
% Injury <20% (number of individuals) [4, 8]: 10
% Injury >40% (number of individuals) [4, 8]: 5
% Injury Ave [4, 8]: 34%
% Injury 20-40% (number of individuals) [4, 9]: 6
% Injury <20% (number of individuals) [4, 9]: 5
% Injury >40% (number of individuals) [4, 9]: 5
% Injury Ave [4, 9]: 44%
% Injury 20-40% (number of individuals) [4, 10]: 0
% Injury <20% (number of individuals) [4, 10]: 0
% Injury >40% (number of individuals) [4, 10]: 16
% Injury Ave [4, 10]: 85%
% Injury 20-40% (number of individuals) (PAT/Cry1F Arabidopsis; [7]): 0
% Injury <20% (number of individuals) (PAT/Cry1F Arabidopsis; [7]): 0
% Injury >40% (number of individuals) (PAT/Cry1F Arabidopsis; [7]): 5
% Injury Ave (PAT/Cry1F Arabidopsis; [7]): 67%
% Injury 20-40% (number of individuals) (PAT/Cry1F Arabidopsis; [8]): 0
% Injury <20% (number of individuals) (PAT/Cry1F Arabidopsis; [8]): 0
% Injury >40% (number of individuals) (PAT/Cry1F Arabidopsis; [8]): 5
% Injury Ave (PAT/Cry1F Arabidopsis; [8]): 100%
% Injury 20-40% (number of individuals) (PAT/Cry1F Arabidopsis; [9]): 0
% Injury <20% (number of individuals) (PAT/Cry1F Arabidopsis; [9]): 0
% Injury >40% (number of individuals) (PAT/Cry1F Arabidopsis; [9]): 5
% Injury Ave (PAT/Cry1F Arabidopsis; [9]): 100%
% Injury 20-40% (number of individuals) (PAT/Cry1F Arabidopsis; [10]): 0
% Injury <20% (number of individuals) (PAT/Cry1F Arabidopsis; [10]): 0
% Injury >40% (number of individuals) (PAT/Cry1F Arabidopsis; [10]): 5
% Injury Ave (PAT/Cry1F Arabidopsis; [10]): 100%
% Injury 20-40% (number of individuals) [5, 7]: 0
% Injury <20% (number of individuals) [5, 7]: 0
% Injury >40% (number of individuals) [5, 7]: 5
% Injury Ave [5, 7]: 75%
% Injury 20-40% (number of individuals) [5, 8]: 0
% Injury <20% (number of individuals) [5, 8]: 0
% Injury >40% (number of individuals) [5, 8]: 5
% Injury Ave [5, 8]: 100%
% Injury 20-40% (number of individuals) [5, 9]: 0
% Injury <20% (number of individuals) [5, 9]: 0
% Injury >40% (number of individuals) [5, 9]: 5
% Injury Ave [5, 9]: 100%
% Injury 20-40% (number of individuals) [5, 10]: 0
% Injury <20% (number of individuals) [5, 10]: 0
% Injury >40% (number of individuals) [5, 10]: 5
% Injury Ave [5, 10]: 100%
% Injury 20-40% (number of individuals) [6, 7]: 0
% Injury <20% (number of individuals) [6, 7]: 0
% Injury >40% (number of individuals) [6, 7]: 5
% Injury Ave [6, 7]: 66%
% Injury 20-40% (number of individuals) [6, 8]: 0
% Injury <20% (number of individuals) [6, 8]: 0
% Injury >40% (number of individuals) [6, 8]: 5
% Injury Ave [6, 8]: 100%
% Injury 20-40% (number of individuals) [6, 9]: 0
% Injury <20% (number of individuals) [6, 9]: 0
% Injury >40% (number of individuals) [6, 9]: 5
% Injury Ave [6, 9]: 100%
% Injury 20-40% (number of individuals) [6, 10]: 0
% Injury <20% (number of individuals) [6, 10]: 0
% Injury >40% (number of individuals) [6, 10]: 5
% Injury Ave [6, 10]: 100%
